# From ChEMBL document CHEMBL4251595, “Green approach for the synthesis of thiophenyl pyrazoles and isoxazoles by adopting 1,3-dipolar cycloaddition methodology and their antimicrobial activity” (2018)
# The source made the active and inactive calls. The calls are words filed in the database; no cut-off is given here.
# How the values were obtained:
# Assay type in all cases: functional
# Klebsiella pneumoniae [1] = assay: Antimicrobial activity against Klebsiella pneumoniae assessed as zone of inhibition at 100 ug/well after 24 hrs by agar well diffusion method; details: read-out: DIZ
# Aspergillus niger [2] = assay: Antifungal activity against Aspergillus niger assessed as zone of inhibition at 100 ug/well after 48 hrs by agar well diffusion method; details: for zone of inhibition at 100 µg/disc: read-out: DIZ
# Pseudomonas aeruginosa [3] = assay: Antimicrobial activity against Pseudomonas aeruginosa assessed as zone of inhibition at 50 ug/well after 24 hrs by agar well diffusion method; details: for zone of inhibition at 50 µg/disc: read-out: DIZ
# Staphylococcus aureus [4] = assay: Antimicrobial activity against Staphylococcus aureus assessed as zone of inhibition at 75 ug/well after 24 hrs by agar well diffusion method; details: for zone of inhibition at 75 µg/disc: read-out: DIZ
# Bacillus subtilis [5] = assay: Antimicrobial activity against Bacillus subtilis assessed as zone of inhibition at 50 ug/well after 24 hrs by agar well diffusion method; details: read-out: DIZ
# Staphylococcus aureus [6] = assay: Antimicrobial activity against Staphylococcus aureus assessed as zone of inhibition at 100 ug/well after 24 hrs by agar well diffusion method; details: for zone of inhibition at 100 µg/disc: read-out: DIZ
# Bacillus subtilis [7] = assay: Antimicrobial activity against Bacillus subtilis assessed as zone of inhibition at 75 ug/well after 24 hrs by agar well diffusion method; details: read-out: DIZ
# Pseudomonas aeruginosa [8] = assay: Antimicrobial activity against Pseudomonas aeruginosa assessed as zone of inhibition at 75 ug/well after 24 hrs by agar well diffusion method; details: for zone of inhibition at 75 µg/disc: read-out: DIZ
# Aspergillus niger [9] = assay: Antifungal activity against Aspergillus niger assessed as zone of inhibition at 50 ug/well after 48 hrs by agar well diffusion method; details: for zone of inhibition at 50 µg/disc: read-out: DIZ
# Penicillium chrysogenum [10] = assay: Antifungal activity against Penicillium chrysogenum assessed as zone of inhibition at 50 ug/well after 48 hrs by agar well diffusion method; details: for zone of inhibition at 50 µg/disc: read-out: DIZ
# Klebsiella pneumoniae [11] = assay: Antimicrobial activity against Klebsiella pneumoniae assessed as zone of inhibition at 50 ug/well after 24 hrs by agar well diffusion method; details: for zone of inhibition at 50 µg/disc: read-out: DIZ
# Bacillus subtilis [12] = assay: Antimicrobial activity against Bacillus subtilis assessed as zone of inhibition at 100 ug/well after 24 hrs by agar well diffusion method; details: read-out: DIZ
# Pseudomonas aeruginosa [13] = assay: Antimicrobial activity against Pseudomonas aeruginosa assessed as zone of inhibition at 100 ug/well after 24 hrs by agar well diffusion method; details: for zone of inhibition at 100 µg/disc: read-out: DIZ
# Staphylococcus aureus [14] = assay: Antimicrobial activity against Staphylococcus aureus assessed as zone of inhibition at 50 ug/well after 24 hrs by agar well diffusion method; details: for zone of inhibition at 50 µg/disc: read-out: DIZ
# Penicillium chrysogenum [15] = assay: Antifungal activity against Penicillium chrysogenum assessed as zone of inhibition at 75 ug/well after 48 hrs by agar well diffusion method; details: for zone of inhibition at 75 µg/disc: read-out: DIZ
# Penicillium chrysogenum [16] = assay: Antifungal activity against Penicillium chrysogenum assessed as zone of inhibition at 100 ug/well after 48 hrs by agar well diffusion method; details: for zone of inhibition at 100 µg/disc: read-out: DIZ
# Aspergillus niger [17] = assay: Antifungal activity against Aspergillus niger assessed as zone of inhibition at 75 ug/well after 48 hrs by agar well diffusion method; details: for zone of inhibition at 75 µg/disc: read-out: DIZ
# Klebsiella pneumoniae [18] = assay: Antimicrobial activity against Klebsiella pneumoniae assessed as zone of inhibition at 75 ug/well after 24 hrs by agar well diffusion method; details: for zone of inhibition at 75 µg/disc: read-out: DIZ
SMILES,zone of inhibition at 100 µg/disc (Klebsiella pneumoniae [1]) [mm],zone of inhibition at 100 µg/disc (Aspergillus niger [2]) [mm],diameter of the inhibition zone (DIZ) (Pseudomonas aeruginosa [3]),zone of inhibition at 75 µg/disc (Staphylococcus aureus [4]) [mm],zone of inhibition at 50 µg/disc (Bacillus subtilis [5]) [mm],zone of inhibition at 100 µg/disc (Staphylococcus aureus [6]) [mm],zone of inhibition at 75 µg/disc (Bacillus subtilis [7]) [mm],zone of inhibition at 75 µg/disc (Pseudomonas aeruginosa [8]) [mm],zone of inhibition at 50 µg/disc (Aspergillus niger [9]) [mm],diameter of the inhibition zone (DIZ) (Penicillium chrysogenum [10]),zone of inhibition at 50 µg/disc (Klebsiella pneumoniae [11]) [mm],zone of inhibition at 100 µg/disc (Bacillus subtilis [12]) [mm],zone of inhibition at 100 µg/disc (Pseudomonas aeruginosa [13]) [mm],zone of inhibition at 50 µg/disc (Staphylococcus aureus [14]) [mm],zone of inhibition at 75 µg/disc (Penicillium chrysogenum [15]) [mm],zone of inhibition at 100 µg/disc (Penicillium chrysogenum [16]) [mm],zone of inhibition at 75 µg/disc (Aspergillus niger [17]) [mm],zone of inhibition at 75 µg/disc (Klebsiella pneumoniae [18]) [mm],diameter of the inhibition zone (DIZ) (Pseudomonas aeruginosa [8]),diameter of the inhibition zone (DIZ) (Pseudomonas aeruginosa [13]),other results
Cc1ccc(-c2c(S(=O)(=O)NC(=O)c3cccs3)c(-c3ccccc3)nn2-c2ccccc2)cc1,18,17,inactive,12,16,14,18,8,12,inactive,14,21,11,9,8,10,15,16,–,–,–
O=C(NS(=O)(=O)/C=C/c1ccccc1)c1cccs1,19,15,–,16,18,17,21,9,10,inactive,15,23,10,12,8,11,13,18,–,–,zone of inhibition at 50 µg/disc (Pseudomonas aeruginosa [3]): 7 mm
O=C(NS(=O)(=O)C1C(c2ccccc2)=NOC1c1ccccc1)c1ccc(Cl)s1 (stereo not drawn),12,12,inactive,–,10,8,12,–,–,inactive,8,16,–,–,–,7,9,10,inactive,inactive,diameter of the inhibition zone (DIZ) (Staphylococcus aureus [4]): inactive; diameter of the inhibition zone (DIZ) (Aspergillus niger [9]): inactive; diameter of the inhibition zone (DIZ) (Staphylococcus aureus [14]): inactive; diameter of the inhibition zone (DIZ) (Penicillium chrysogenum [15]): inactive
O=C(NS(=O)(=O)c1c(-c2ccccc2)nn(-c2ccccc2)c1-c1ccccc1)c1ccc(Cl)s1,27,25,–,21,25,24,28,16,18,–,23,32,19,19,15,17,21,25,–,–,zone of inhibition at 50 µg/disc (Pseudomonas aeruginosa [3]): 14 mm; zone of inhibition at 50 µg/disc (Penicillium chrysogenum [10]): 13 mm
O=C(NS(=O)(=O)c1c(-c2ccccc2)noc1-c1ccccc1)c1cccs1,26,23,–,21,24,23,26,13,18,–,21,29,15,17,16,19,20,24,–,–,zone of inhibition at 50 µg/disc (Pseudomonas aeruginosa [3]): 11 mm; zone of inhibition at 50 µg/disc (Penicillium chrysogenum [10]): 14 mm
O=C(NS(=O)(=O)C1C(c2ccccc2)=NOC1c1ccccc1)c1cccs1 (stereo not drawn),9,–,inactive,–,7,–,10,–,–,inactive,–,13,–,–,–,–,–,–,inactive,inactive,diameter of the inhibition zone (DIZ) (Aspergillus niger [2]): inactive; diameter of the inhibition zone (DIZ) (Staphylococcus aureus [4]): inactive; diameter of the inhibition zone (DIZ) (Staphylococcus aureus [6]): inactive; diameter of the inhibition zone (DIZ) (Aspergillus niger [9]): inactive; diameter of the inhibition zone (DIZ) (Klebsiella pneumoniae [11]): inactive; diameter of the inhibition zone (DIZ) (Staphylococcus aureus [14]): inactive; diameter of the inhibition zone (DIZ) (Penicillium chrysogenum [15]): inactive; diameter of the inhibition zone (DIZ) (Penicillium chrysogenum [16]): inactive; diameter of the inhibition zone (DIZ) (Aspergillus niger [17]): inactive; diameter of the inhibition zone (DIZ) (Klebsiella pneumoniae [18]): inactive
O=C(NS(=O)(=O)c1c(-c2ccccc2)nn(-c2ccccc2)c1-c1ccccc1)c1cccs1,23,20,–,18,22,20,23,10,15,–,18,26,12,15,14,16,16,20,–,–,zone of inhibition at 50 µg/disc (Pseudomonas aeruginosa [3]): 9 mm; zone of inhibition at 50 µg/disc (Penicillium chrysogenum [10]): 12 mm
O=C(NS(=O)(=O)C1C(c2ccccc2)=NOC1c1ccc([N+](=O)[O-])cc1)c1cccs1 (stereo not drawn),11,13,inactive,12,15,15,16,–,–,inactive,9,20,–,11,8,10,10,10,inactive,inactive,diameter of the inhibition zone (DIZ) (Aspergillus niger [9]): inactive
Cc1ccc(-c2onc(-c3ccccc3)c2S(=O)(=O)NC(=O)c2cccs2)cc1,21,18,inactive,14,18,16,20,9,13,–,16,23,12,12,12,16,15,20,–,–,zone of inhibition at 50 µg/disc (Penicillium chrysogenum [10]): 10 mm
O=C(NS(=O)(=O)C1C(c2ccccc2)=NOC1c1ccc([N+](=O)[O-])cc1)c1ccc(Cl)s1 (stereo not drawn),13,15,inactive,14,16,16,19,–,9,inactive,9,21,–,13,9,12,12,11,inactive,inactive,–
O=C(NS(=O)(=O)C1C(c2ccccc2)=NN(c2ccccc2)C1c1ccc([N+](=O)[O-])cc1)c1ccc(Cl)s1 (stereo not drawn),14,17,inactive,–,13,10,15,–,10,inactive,12,19,–,–,10,14,14,13,inactive,inactive,diameter of the inhibition zone (DIZ) (Staphylococcus aureus [4]): inactive; diameter of the inhibition zone (DIZ) (Staphylococcus aureus [14]): inactive
